# Earlier results, collected in patent publication US20210337800A1, “METHOD AND SYSTEM OF IMPROVING THE PERSONAL PROTECTIVE EQUIPMENT OF […] AND THE GENERAL PUBLIC USING ANT[…]” (Sockdocs Inc., priority 2020, published 2021).
# System: viruses
# Settings: testing in 2006; no method or virus named
compound,measurement,value
CCCCCCCCCCCCCCCCCC[N+](C)(C)CCC[Si](OC)(OC)OC.[Cl-] [3-(trimethoxysilyl) propyldimethyloctadecyl ammonium chloride],anti-viral activity,showed anti-viral activity
